Results on 45 compounds are retold here after US20230348454A1, “COMPOUNDS AS MODULATORS OF BIS-PHOSPHOGLYCERATE MUTASE FOR THE TREATMENT OF SICKLE CELL DISEASE” (Genzyme Corporation, priority 2020, published 2023).

pEC50, pIC50: −log10 of the molar value. Read-outs that look alike come from different tables or passages of the source. Where only a bound is given, the exact number is not on record here.

Test [1] has as its target T1, hBPGM (Homo sapiens, UniProt P07738).
T1 sequence (P07738 1-259): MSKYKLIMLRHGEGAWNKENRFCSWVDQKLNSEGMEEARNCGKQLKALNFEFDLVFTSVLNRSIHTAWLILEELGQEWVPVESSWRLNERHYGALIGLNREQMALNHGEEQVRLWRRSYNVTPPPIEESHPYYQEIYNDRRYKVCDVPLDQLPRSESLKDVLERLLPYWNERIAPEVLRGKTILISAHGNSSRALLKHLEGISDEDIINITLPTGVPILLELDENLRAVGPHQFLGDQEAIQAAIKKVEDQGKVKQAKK
Kind of test: BPGM synthase assay. It is filed as biochemical. The method, then: The following materials were used in this assay: deionized water; Bisphosphoglycerate mutase (BPGM; Standard Buffer: 50 mM Tris, 0.01% Tween 20, pH 7.4); BPGM Reaction Buffer (50 mM Tris, 0.01% Tween 20, 3.23 mM KH2PO4, pH 7.4); dithiothreitol (DTT; Stock solution: 100 mM in Standard Buffer); 384-Well Black Assay Plate (Corning, P/N 3575); DMSO; BPGM Stock Solution (500 nM in BPGM Standard Buffer); Glyceraldehyde 3-phosphate dehydrogenase (GAPDH; Stock Solution: 40 U/mL in 20 mM Tris-HCL Buffer with 20% Glycerol, 1 mM EDTA, 1 mM DTT); Glyceraldehyde 3-phosphate (GAP; Stock Solution: 20 mM in BPGM Standard Buffer); 3-PG Stock Solution (500 μM in BPGM Standard Buffer); Nicotinamide adenine dinucleotide (NAD; Stock Solution: 50 mM in BPGM Standard Buffer); Koningic Acid (1 mM Stock in DMSO); Resazurin Stock Solution (10 mM in DMSO); Diaphorase Stock Solution (40 U/mL in BPGM Standard Buffer); DTT Reaction Buffer (1 mM DTT in BPGM Reaction Buffer); Enzyme Solution (5 nM BPGM, 0.4 U/mL GAPDH in DTT Reaction Buffer); GAPDH Solution (0.4 U/mL GAPDH in DTT Reaction Buffer); Substrate Solution (2 mM NAD, 20 μM 3PG, 800 μM GAP in DTT Reaction Buffer); and Resazurin Solution (5 U/mL Diaphorase, 500 μM Resazurin in BPGM Standard Buffer).
To the assay plate was added Enzyme Solution (20 uL) to columns 2-22 and 24 of the assay plate. To columns 1 and 23 was added GAPDH Solution (20 uL). A separate compound plate was prepared at the desired concentrations and all wells were normalized with 5% DMSO. The compound plate was incubated for 30 minutes at RT. Next, the substrate solution (20 μL) was dispensed to all reaction wells and the plate was incubated for 60 minutes at RT. Koningic acid (1 μL) was added and the plate was incubated for 10 minutes at RT. During this time period, the NADH fluorescence was read at ex: 360/em: 460. Next, Resazurin Solution (10 μL) was added to all reaction wells and the plate was incubated for 30 minutes at RT. The resorufin fluorescence was then read at ex:544/em:590.

Test [2] has as its target T2, human Bisphosphoglycerate mutase (hBPGM) (Homo sapiens, UniProt P07738).
T2 sequence (P07738 1-259): T1 sequence (P07738 1-259)
In words: BPGM phosphatase assay. It is filed as biochemical. The method, then: The following materials were used in this assay: Tris buffer (50 mM Tris, 0.01% Tween 20, pH 7.4); cyclohexylammonium salt of 2,3-BPG (stock solution of 500 mM in ultapure distilled water; human Bisphosphoglycerate mutase (hBPGM; stock solution of 110 μM in Standard Buffer); 3-Phosphoglyceric acid (3-PG; stock solution of 100 mM in ultrapure distilled water); 384-Well Polystyrene Plates (Fisherbrand™, Catalog No.: 12-566-625); BIOMOL GREEN REAGENT (Enzo life sciences, BML-AK111-0250); and 1 mM DMSO stock of exemplary compounds.
A 3-PG enzyme mix solution (final enzyme concentration 62.5 nM, 3-PG concentration at 50 µM, 14.5 uL) was added to onto a 384-well clear plate. Solutions of the test compounds were then added to the plate and the DMSO content was normalized across the plate. The plate was incubated at RT for 15 min. Next, the substrate 2,3-BPG (5 μL) was added to all the wells, and the plate was sealed and incubated for 24 hr at RT. After incubation, BIOMOL green dye (40 μL) was added to all the wells, the plate was shaken to mix, and the plate was incubated at RT for 20-30 min. Absorbance measurements were recorded at 620 nm.

The mark [3] stands for this setting: Table 6, read-out: huBPGM: synthase Enzyme IC50.
[4] abbreviates: Table 6, read-out: huBPGM: phosphatase Enzyme EC50.

With `Cc1nc(CNc2cccnn2)sc1-c1cccc(-c2cc(F)c3nn[nH]c3c2F)n1` [Example 95], in test [1] (setting [3]), the pIC50 (as a rule, −log10 of the IC50, conventionally taken in molar units) was 7.60. Besides, the pEC50 (as a rule, −log10 of the EC50, conventionally taken in molar units) in test [2] (setting [4]) is 7.60.

For the compound `CC(=O)NCc1nc(C)c(-c2csc(-c3cc(F)c(O)c(F)c3F)n2)s1` [Example 96], the pIC50 in test [1] (setting [3]) was 5.80. Besides, the pEC50 in test [2] (setting [4]) is 6.00.

`Cc1nc(CNC(=O)N2CC(O)C2)sc1-c1csc(-c2cc(F)c(O)c(F)c2F)n1` [Example 97]: the pIC50 in test [1] (setting [3]) is 5.74. The pEC50 in test [2] (setting [4]) is 5.16. Regarding `Cc1nc(COC(C)C(=O)N(C)C)sc1-c1csc(-c2cc(F)c(O)c(F)c2F)n1` (stereo not shown) [Example 98], the pIC50 in test [1] (setting [3]) was 5.66. Moreover, the pEC50 in test [2] (setting [4]) was 6.42. Consider `Cc1nc(COCC(=O)O)sc1-c1csc(-c2cc(F)c(O)c(F)c2F)n1` [Example 99], for which the pIC50 in test [1] (setting [3]) was 5.33. Also, the pEC50 in test [2] (setting [4]) was 5.11.

Consider `Cc1nc(COc2ccccn2)sc1-c1csc(-c2cc(F)c3[nH]nnc3c2)n1` [Example 100], for which the pIC50 in test [1] (setting [3]) is 6.51. In test [2] (setting [4]), the negative logarithm of the EC50 (pEC50) is 7.24. Taken in the same sequence, the figures for `Cc1nc(COc2ccccn2)sc1-c1csc(-c2cc(F)c(O)c(F)c2F)c1` [Example 102] were 6.21 and 7.35.

With `CC(=O)NCc1nc(C)c(-c2csc(-c3cc(F)c4[nH]nnc4c3)n2)s1` [Example 103], the pIC50 in test [1] (setting [3]) is 6.03. Further, the pEC50 in test [2] (setting [4]) is < 4.60. Consider `Cc1nc(COCC(=O)N2CCN(CCO)CC2)sc1-c1csc(-c2cc(F)c(O)c(F)c2F)n1` [Example 104], for which, in test [1] (setting [3]), the pIC50 is 5.64. Further, the pEC50 in test [2] (setting [4]) is < 4.60. On the same counts, the results for `Cc1nc(COC(=O)N(C)C)sc1-c1cccc(-c2cc(F)c3nn[nH]c3c2F)n1` [Example 125] are 7.64 and 5.57. In the case of `Cc1nc(CNc2ncccn2)sc1-c1cccc(-c2cc(F)c3nn[nH]c3c2F)n1` [Example 126], the pIC50 in test [1] (setting [3]) was 7.68. Further, the pEC50 in test [2] (setting [4]) was < 4.60. Taken in the same sequence, the figures for `Cc1nc(COCC(=O)N2CCCC2)sc1-c1csc(-c2cc(F)c(O)c(F)c2F)n1` [Example 127] were 6.37 and 6.42. Taken in the same sequence, the figures for `Cc1ccnc(OCc2nc(C)c(-c3cccc(-c4cc(F)c5nn[nH]c5c4F)n3)s2)n1` [Example 130] were 7.82 and 5.00. `Cc1nc(COc2ncccn2)sc1-c1cccc(-c2ccc3nn[nH]c3c2)n1` [Example 131]: in test [1] (setting [3]), the pIC50 is 6.29. Moreover, in test [2] (setting [4]), the pEC50 was 6.24. On the same counts, the results for `Cc1nc(COc2ncc(C(=O)O)cn2)sc1-c1cccc(-c2cc(F)c3nn[nH]c3c2F)n1` [Example 135] are 6.80 and 6.62. On the same counts, the results for `Cc1cnc(OCc2nc(C)c(-c3cccc(-c4cc(F)c5nn[nH]c5c4)n3)s2)nc1C` [Example 136] are 6.70 and 7.15. In the case of `Cc1nc(COC(=O)N(C)C)sc1-c1csc(-c2cc(F)c(O)c(F)c2F)n1` [Example 137], in test [1] (setting [3]), the pIC50 was 6.64. Moreover, the pEC50 in test [2] (setting [4]) was 6.70.

Consider `Cc1nc(CNC(=O)C(C)CN(C)C)sc1-c1cccc(-c2cc(F)c3nn[nH]c3c2F)n1` (stereo not shown) [Example 138], for which the pIC50 in test [1] (setting [3]) was 6.02. In addition, the pEC50 in test [2] (setting [4]) is < 4.60. `Cc1nc(COc2ncccn2)sc1-c1cccc(-c2cc[n+]([O-])cc2)n1` [Example 139]: in test [1] (setting [3]), the pIC50 was < 4.60. Moreover, the pEC50 in test [2] (setting [4]) is < 4.60. On to `Cc1nc(COc2ncc(Cl)cn2)sc1-c1cccc(-c2cc(F)c3nn[nH]c3c2)n1` [Example 140], for which the pEC50 in test [2] (setting [4]) was 7.52. `Cc1nc(COc2ncccn2)sc1-c1cccc(-c2cc(F)c3[nH]nnc3c2)n1` [Example 141]: the pIC50 in test [1] (setting [3]) is 7.27. Moreover, the pEC50 in test [2] (setting [4]) was 7.24. For `COc1cnc(OCc2nc(C)c(-c3cccc(-c4cc(F)c5nn[nH]c5c4)n3)s2)nc1` [Example 142], in test [1] (setting [3]), the pIC50 was 6.59. The pEC50 in test [2] (setting [4]) is 7.40. With `CCc1cnc(OCc2nc(C)c(-c3cccc(-c4cc(F)c5nn[nH]c5c4F)n3)s2)nc1` [Example 144], in test [1] (setting [3]), the pIC50 was 6.48. For the same compound, the pEC50 in test [2] (setting [4]) is 7.40. For the compound `Cc1nc(COc2ncccn2)sc1-c1csc(-c2cc(F)c3[nH]nnc3c2)c1` [Example 145], the pIC50 in test [1] (setting [3]) is 6.60. Further, the pEC50 in test [2] (setting [4]) was 7.52.

On to `Cc1nc(COc2ncccn2)sc1-c1ccnc(-c2cc(F)c3nn[nH]c3c2F)n1` [Example 220], for which the negative logarithm of the IC50 (pIC50) in test [1] (setting [3]) is 7.57. Regarding `Cc1nc(COCCN(C)C)sc1-c1cccc(-c2cc(F)c3nn[nH]c3c2F)n1` [Example 221], the pIC50 in test [1] (setting [3]) was 6.77.

For `Cc1nc(C)c(CCOc2cc(F)c3nn[nH]c3c2F)s1` [Example 222], the pIC50 in test [1] (setting [3]) was < 4.60. The same measure, in the same setting: then `Cc1nc(CNC(=O)C(C)(C)C)sc1-c1ccnc(-c2cc(F)c3nn[nH]c3c2F)n1` [Example 223], with 6.08; and `Cc1nc(COCC(C)(C)O)sc1-c1nc(-c2cc(F)c3nn[nH]c3c2F)cs1` [Example 224], with 7.52; and `Cc1nc(CN(C)CC(C)(C)O)sc1-c1cccc(-c2cc(F)c3nn[nH]c3c2F)n1` [Example 225], with 6.68.

With `Cc1nc(COCC(C)(C)O)sc1-c1nc(-c2cc(F)c3nn[nH]c3c2)cs1` [Example 226], in test [1] (setting [3]), the pIC50 was 7.09. On the same count and under the same terms, then `COC(C)(C)COCc1nc(C)c(-c2cccc(-c3cc(F)c4nn[nH]c4c3F)n2)s1` [Example 227], with 7.68. Still for that read-out and setting: the figure for `COc1c(F)cc(-c2cccc(-c3sc(COc4ncccn4)nc3C)n2)c(F)c1C#N` [Example 228] is < 4.60; for `Cc1nc(COc2ncccn2)sc1-c1cccc(Nc2ccc3[nH]nnc3c2)n1` [Example 229] it is < 4.60; for `Cc1nc(-c2cccc(-c3sc(COc4ncccn4)nc3C)n2)nnc1O` [Example 230] it is < 4.60. For the compound `Cc1nc(COc2ncccn2)sc1-c1cccc(-c2cc(F)c(O)c(C#N)c2F)n1` [Example 231], the pIC50 in test [1] (setting [3]) was 7.06. Still for that read-out and setting: then `Cc1nnc(-c2cccc(-c3cc(F)c4nn[nH]c4c3F)n2)s1` [Example 232], with 5.66.

As for `Cc1nc(COc2ncccn2)sc1-c1cnn(-c2cc(F)c(O)c(F)c2F)c1` [Example 233], in test [1] (setting [3]), the pIC50 is 5.41. As for `Cc1nc(COCC(C)(C)C)sc1-c1cccc(-c2cc(F)c3nn[nH]c3c2F)n1` [Example 234], in test [1] (setting [3]), the pIC50 is 5.89. On to `Cc1nc(COC(C)(C)C)sc1-c1cccc(-c2cc(F)c3nn[nH]c3c2F)n1` [Example 235], for which, in test [1] (setting [3]), the pIC50 was 6.89. The same measure, in the same setting: then `Cc1nc(COC(C)C)sc1-c1cccc(-c2cc(F)c3nn[nH]c3c2F)n1` [Example 236], with 6.96; and `Cc1nc(COCC(C)O)sc1-c1cccc(-c2cc(F)c3nn[nH]c3c2F)n1` (stereo not shown) [Example 237], with 7.66; and `Cc1nc(COCC2(O)CC2)sc1-c1cccc(-c2cc(F)c3nn[nH]c3c2F)n1` [Example 238], with 7.31. Take `Cc1nc(COc2cccnn2)sc1-c1csc(-c2cc(F)c3[nH]nnc3c2)n1` [compound 7]: the pEC50 in test [2] (Table 4, read-out: hBPGM Phosphatase EC50) was 7.26; in test [2] (setting [4]), 7.26. `Cc1nc(COc2ncccn2)sc1-c1cccc(-c2cc(F)c(O)c(C#N)c2)n1` [compound 12]: the pIC50 in test [1] (Table 3, read-out: hBPGM Synthase IC50) is 6.59; in test [1] (setting [3]), 6.59.
